Measured values reported in patent publication US20150148235A1, “HERBICIDE-RESISTANT SUNFLOWER PLANTS WITH MULTIPLE HERBICIDE RESISTANT ALLELES OF AHASL1 AND METHODS OF USE” (NIDERA S.A., priority 2013, published 2015).

What was measured:
[1] = system: sunflower GM40 (A122T), HA425 (A205V) and progeny; type: in vivo, Helianthus annuus
Procedure: To determine the phenotypic interactions of the resistance gene A122T and the Imr1 gene (A205V) already described in IMI-R sunflowers (HA425), F1, F2 and BC1F1 populations from the cross GM40 (A122T)/HA425 (A205V) were evaluated at two herbicide applications rates (80 and 320 g. a. i. Ha^−1 of imazapyr). […] When F2 and BC1F1 populations were scored at the higher herbicide rate (320 g. a. i. Ha-1), which discriminates both parents, segregation for susceptibility was observed. Only two phenotypic classes could be detected, a resistant class with plants without any injury or slight symptoms and a susceptible phenotype that was killed like the control line HA425.

[2] = system: sunflower hybrids and lines (A122T, A205V, A205V/A122T); assay: Field trial North Dakota 2006, phytotoxicity ratings after imazamox or imazapyr, Example 3; type: in vivo, Helianthus annuus; settings: for Phytotoxicity Rating (% Crop Injury): 160 g ai/ha + 0.25% NIS
Procedure: • Spray volume: 10 gallons per acre (GPA) (or 100 liters/ha) for backpack sprayer or 20 GPA (or 200 liters/ha) for tractor mounted boom • Growth Stage at Herbicide Application: 2-4 leaves
Entry 15 (WT Maintainer line) was left unsprayed in all treatment blocks.
Phytotoxicity ratings were assessed at 7 and 21 days following herbicide application.
The data was subjected to an ANOVA analysis and the means from the 3 repetitions are presented in Table 7 (phytotoxicity at 7 days post-treatment) and Table 8 (phytotoxicity at 21 days post-treatment).

[3] = system: AHAS enzyme, A122T/A205V Heterozygous sunflower; assay: AHAS enzyme activity assay, leaf extract; type: biochemical, Helianthus annuus; settings: A122T/A205V heterozygous hybrid (Set 1); 100 μM
Procedure: (§1) Twelve greenhouse grown sunflower plants from each of the lines depicted in Table 21 were bulked and subjected to an AHAS enzyme activity assay via the method of Singh et al. (1988) Anal. Biochem. 171:173-179. Each activity assay was repeated twice. Due to the large number of samples, the experiment was split into two sets (Table 21).
(§2) Young, actively growing leaves, from four week old plantlets, were ground in a mortar and pestle with liquid N2 and extracted with a buffer composed of 100 mM Pyruvate, 200 mM KH2PO4, 20 mM MgCl2, 2 mM thiamine pyrophosphate and […]. Plant extracts were then spun through a 10 mL Zeba TM desalt spin column (Pierce #89893) as per the manufacturer's recommendation. The inhibition assay was performed as described by Singh et al. (1988) Anal. Biochem. 171:173-179. Assays were conducted in a 96-well format. Fifty μl of inhibitor was added to each well containing 50 μl of soluble protein extract to give final concentrations of 0.78, 1.56, 3.125, 6.25, 12.5, 25, 50 and 100 μM imazamox or 0.78, 1.56, 3.125, 6.25, 12.5, 25, 50 and 100 μM imazapyr. Zero herbicide controls were also included for each line. Reactions were processed as outlined by Singh et al. (1988) Anal. Biochem. 171:173-179. Absorbance was measured at 530 nm. AHAS activity, expressed as the mean of the absorbance values for each treatment, was presented as a percentage of the mean of the zero-herbicide controls.

[4] = system: AHAS enzyme, A205V Homozygous sunflower; assay: AHAS enzyme activity assay, leaf extract; type: biochemical, Helianthus annuus; settings: A205V homozygous hybrid (Set 1); 100 μM
Procedure: as §1, §2

[5] = system: AHAS enzyme, A122T Homozygous sunflower; assay: AHAS enzyme activity assay, leaf extract; type: biochemical, Helianthus annuus; settings: A122T homozygous hybrid (Set 1); 100 μM
Procedure: as §1, §2

SMILES: CC(C)C1(C)N=C(c2ncccc2C(=O)O)NC1=O (stereo not shown) [imazapyr]
- susceptible plants in F2 and BC1F1 populations of GM40 (A122T)/HA425 (A205V) ([1]; 80 g a.i./ha (1x, lower rate)): No susceptible plants were observed
- response of control line HA425 ([1]; HA425 (A205V), 320 g a.i./ha): killed
- Phytotoxicity Rating (% Crop Injury) ([2]; 1-hybrid (WT × IMI restorer, A205 hetero), 7 DAT): 16.7%
- Phytotoxicity Rating (% Crop Injury) ([2]; 1-hybrid (WT × IMI restorer, A205 hetero), 21 DAT): 20.0%
- Phytotoxicity Rating (% Crop Injury) ([2]; 3-hybrid (WT × IMI restorer, A205 hetero), 7 DAT): 35.0%
- Phytotoxicity Rating (% Crop Injury) ([2]; 3-hybrid (WT × IMI restorer, A205 hetero), 21 DAT): 43.3%
- Phytotoxicity Rating (% Crop Injury) ([2]; 4-line (IMI Restorer, A205 homo), 7 DAT): 11.7%
- Phytotoxicity Rating (% Crop Injury) ([2]; 4-line (IMI Restorer, A205 homo), 21 DAT): 6.7%
- Phytotoxicity Rating (% Crop Injury) ([2]; 6-hybrid (IMI CMS × IMI restorer, A205 homo), 7 DAT): 8.3%
- Phytotoxicity Rating (% Crop Injury) ([2]; 6-hybrid (IMI CMS × IMI restorer, A205 homo), 21 DAT): 3.3%
- Phytotoxicity Rating (% Crop Injury) ([2]; 7-hybrid (WT-CMS × IMI restorer, A205 hetero), 7 DAT): 21.7%
- Phytotoxicity Rating (% Crop Injury) ([2]; 7-hybrid (WT-CMS × IMI restorer, A205 hetero), 21 DAT): 36.7%
- Phytotoxicity Rating (% Crop Injury) ([2]; 8-hybrid (WT × GM40 restorer, A122 hetero), 7 DAT): 13.3%
- Phytotoxicity Rating (% Crop Injury) ([2]; 8-hybrid (WT × GM40 restorer, A122 hetero), 21 DAT): 11.7%
- Phytotoxicity Rating (% Crop Injury) ([2]; 9-line (GM40 restorer, A122 homo), 7 DAT): 8.3%
- Phytotoxicity Rating (% Crop Injury) ([2]; 9-line (GM40 restorer, A122 homo), 21 DAT): 5.0%
- Phytotoxicity Rating (% Crop Injury) ([2]; 10-hybrid (IMI CMS × GM40 restorer, A205/A122 hetero/double), 7 DAT): 3.3%
- Phytotoxicity Rating (% Crop Injury) ([2]; 10-hybrid (IMI CMS × GM40 restorer, A205/A122 hetero/double), 21 DAT): 0.0%
- Phytotoxicity Rating (% Crop Injury) ([2]; 11-hybrid (GM40 CMS × IMI restorer, A205/A122 hetero/double), 7 DAT): 3.3%
- Phytotoxicity Rating (% Crop Injury) ([2]; 11-hybrid (GM40 CMS × IMI restorer, A205/A122 hetero/double), 21 DAT): 0.0%
- Phytotoxicity Rating (% Crop Injury) ([2]; 12-hybrid (IMI CMS × GM40 restorer, A205/A122 hetero/double), 7 DAT): 5.0%
- Phytotoxicity Rating (% Crop Injury) ([2]; 12-hybrid (IMI CMS × GM40 restorer, A205/A122 hetero/double), 21 DAT): 1.7%
- Phytotoxicity Rating (% Crop Injury) ([2]; 13-hybrid (GM40 CMS × GM40 restorer, A122 homo), 7 DAT): 5.0%
- Phytotoxicity Rating (% Crop Injury) ([2]; 13-hybrid (GM40 CMS × GM40 restorer, A122 homo), 21 DAT): 1.7%
- Phytotoxicity Rating (% Crop Injury) ([2]; 14-hybrid (GM40 CMS × GM40 restorer, A122 homo), 7 DAT): 8.3%
- Phytotoxicity Rating (% Crop Injury) ([2]; 14-hybrid (GM40 CMS × GM40 restorer, A122 homo), 21 DAT): 3.3%
- Phytotoxicity Rating (% Crop Injury) ([2]; 15-hybrid (WT × GM40 restorer, A122 hetero), 7 DAT): 8.3%
- Phytotoxicity Rating (% Crop Injury) ([2]; 15-hybrid (WT × GM40 restorer, A122 hetero), 21 DAT): 21.7%
- Phytotoxicity Rating (% Crop Injury) ([2]; 16-hybrid (WT × GM40 restorer, A122 hetero), 7 DAT): 10.0%
- Phytotoxicity Rating (% Crop Injury) ([2]; 16-hybrid (WT × GM40 restorer, A122 hetero), 21 DAT): 23.3%
- phytotoxicity ([2]; heterozygous A205V entries, 160 g ai/ha, 21 DAT): 20-43%
- AHAS activity [3]: 60%
- AHAS activity [4]: 42 % of untreated control
- AHAS activity [5]: 64 % of untreated control
